From US11807644B2 (PMV Pharmaceuticals, Inc., priority 2020, dated 2023)

Target: T1, recombinant His-tag Y220C p53 DBD protein (Homo sapiens, UniProt P04637, Y220C)
T1 construct: recombinant His-tag Y220C p53 DBD protein (amino acids #˜94-312)
Test: In vitro DNA binding activity assay (TR-FRET): binding of His-tag Y220C p53 DBD to biotin-labeled consensus DNA
Type: biochemical
Details: SC150 = concentration to increase DNA binding by […], His-tag Y220C p53 DBD, biotin-labeled consensus DNA

| Y220C SC150 (μM) | Structure (SMILES) |
| --- | --- |
| * (* = 0 μM ≤ SC150 < 0.1 μM) | COC(C)(C)c1ccc(C(=O)NCc2nc(-c3cc4c(N[C@H]5CCNC[C@H]5F)cccc4n3CC(F)(F)F)no2)s1 [Compound 479B, N-{[3-(4-{[(3R,4S)-3-fluoropiperidin-4-yl]amino}-1-(2,2,2-trifluoroethyl)-1H-indol-2-yl)-1,2,4-oxadiazol-5-yl]methyl}-5-(2-methoxypropan-2-yl)thiophene-2-carboxamide] |
| * (* = 0 μM ≤ SC150 < 0.1 μM) | COC(C)(C)c1ccc(C(=O)NCc2nc(-c3cc4c(N[C@@H]5CCNC[C@@H]5F)cccc4n3CC(F)(F)F)no2)s1 [Compound 480B] |
| * (* = 0 μM ≤ SC150 < 0.1 μM) | CCOCC1(n2ccc(C(=O)NCc3nc(-c4cc5c(N[C@@H]6CCN(C)C[C@@H]6F)cccc5n4CC(F)(F)F)no3)c2)CC1 [Compound 481B, 1-[1-(ethoxymethyl)cyclopropyl]-N-{[3-(4-{[(3S,4R)-3-fluoro-1-methylpiperidin-4-yl]amino}-1-(2,2,2-trifluoroethyl)-1H-indol-2-yl)-1,2,4-oxadiazol-5-yl]methyl}-1H-pyrrole-3-carboxamide] |
| * (* = 0 μM ≤ SC150 < 0.1 μM) | CN(C)CC1(n2ccc(C(=O)NCc3nc(-c4cc5c(N[C@@H]6CCN(C)C[C@@H]6F)cccc5n4CC(F)(F)F)no3)c2)CC1 [Compound 482B, 1-{1-[(dimethylamino)methyl]cyclopropyl}-N-{[3-(4-{[(3S,4R)-3-fluoro-1-methylpiperidin-4-yl]amino}-1-(2,2,2-trifluoroethyl)-1H-indol-2-yl)-1,2,4-oxadiazol-5-yl]methyl}-1H-pyrrole-3-carboxamide] |
| * (* = 0 μM ≤ SC150 < 0.1 μM) | COCC1(c2ccc(C(=O)NCc3nc(-c4cc5c(N[C@@H]6CCN(C)C[C@@H]6F)cccc5n4CC(F)(F)F)no3)s2)CC1 [Compound 483B, N-{[3-(4-{[(3S,4R)-3-fluoro-1-methylpiperidin-4-yl]amino}-1-(2,2,2-trifluoroethyl)-1H-indol-2-yl)-1,2,4-oxadiazol-5-yl]methyl}-5-[1-(methoxymethyl)cyclopropyl]thiophene-2-carboxamide] |
| * (* = 0 μM ≤ SC150 < 0.1 μM) | CN1CC[C@@H](Nc2cccc3c2cc(-c2noc(CNC(=O)c4c[nH]c(C(C)(C)C)c4)n2)n3CC(F)(F)F)[C@@H](F)C1 [Compound 484B, 5-tert-butyl-N-{[3-(4-{1[(3S,4R)-3-fluoro-1-methylpiperidin-4-yl]amino}-1-(2,2,2-trifluoroethyl)-1H-indol-2-yl)-1,2,4-oxadiazol-5-yl]methyl}-1H-pyrrole-3-carboxamide] |
| * (* = 0 μM ≤ SC150 < 0.1 μM) | COCC(C)(C)c1cc(C(=O)NCc2nc(-c3cc4c(N[C@@H]5CCN(C)C[C@@H]5F)cccc4n3CC(F)(F)F)no2)cs1 [Compound 485B, N-{[3-(4-{1[(3S,4R)-3-fluoro-1-methylpiperidin-4-yl]amino}-1-(2,2,2-trifluoroethyl)-1H-indol-2-yl)-1,2,4-oxadiazol-5-yl]methyl}-5-(1-methoxy-2-methylpropan-2-yl)thiophene-3-carboxamide] |
| * (* = 0 μM ≤ SC150 < 0.1 μM) | COCC1(c2cc(C(=O)NCc3nc(-c4cc5c(N[C@@H]6CCN(C)C[C@@H]6F)cccc5n4CC(F)(F)F)no3)cs2)CC1 [Compound 488B, N-{[3-(4-{[(3S,4R)-3-fluoro-1-methylpiperidin-4-yl]amino}-1-(2,2,2-trifluoroethyl)-1H-indol-2-yl)-1,2,4-oxadiazol-5-yl]methyl}-5-[1-(methoxymethyl)cyclopropyl]thiophene-3-carboxamide] |
| * (* = 0 μM ≤ SC150 < 0.1 μM) | COC(C)(C)c1cc(C(=O)NCc2nc(-c3cc4c(N[C@@H]5CCNC[C@@H]5F)cccc4n3CC(F)(F)F)no2)cs1 [Compound 489B, N-{[3-(4-{[(3S,4R)-3-fluoropiperidin-4-yl]amino}-1-(2,2,2-trifluoroethyl)-1H-indol-2-yl)-1,2,4-oxadiazol-5-yl]methyl}-5-(2-methoxypropan-2-yl)thiophene-3-carboxamide] |
| * (* = 0 μM ≤ SC150 < 0.1 μM) | COC(C)(C)c1cc(C(=O)NCc2nc(-c3cc4c(N[C@H]5CCNC[C@H]5F)cccc4n3CC(F)(F)F)no2)cs1 [Compound 490B, N-{[3-(4-{[(3R,4S)-3-fluoropiperidin-4-yl]amino}-1-(2,2,2-trifluoroethyl)-1H-indol-2-yl)-1,2,4-oxadiazol-5-yl]methyl}-5-(2-methoxypropan-2-yl)thiophene-3-carboxamide] |
| * (* = 0 μM ≤ SC150 < 0.1 μM) | CC(C)(C)n1ccc(C(=O)NCc2nc(-c3cc4c(N[C@H]5CCOC[C@H]5F)cccc4n3CC(F)(F)F)no2)c1 [Compound 492B, 1-tert-butyl-N-{[3-(4-{[(3S,4S)-3-fluorooxan-4-yl]amino}-1-(2,2,2-trifluoroethyl)-1H-indol-2-yl)-1,2,4-oxadiazol-5-yl]methyl}-1H-pyrrole-3-carboxamide] |
| * (* = 0 μM ≤ SC150 < 0.1 μM) | CC(C)(C)n1ccc(C(=O)NCc2nc(-c3cc4c(N[C@@H]5CCOC[C@@H]5F)cccc4n3CC(F)(F)F)no2)c1 [Compound 493B, 1-tert-butyl-N-{[3-(4-{[(3R,4R)-3-fluorooxan-4-yl]amino}-1-(2,2,2-trifluoroethyl)-1H-indol-2-yl)-1,2,4-oxadiazol-5-yl]methyl}-1H-pyrrole-3-carboxamide] |
| * (* = 0 μM ≤ SC150 < 0.1 μM) | COCC1(n2ccc(C(=O)NCc3nc(-c4cc5c(N[C@@H]6CCOC[C@@H]6F)cccc5n4CC(F)(F)F)no3)c2)CC1 [Compound 495B, N-{[3-(4-{[(3R,4R)-3-fluorooxan-4-yl]amino}-1-(2,2,2-trifluoroethyl)-1H-indol-2-yl)-1,2,4-oxadiazol-5-yl]methyl}-1-[1-(methoxymethyl)cyclopropyl]-1H-pyrrole-3-carboxamide] |
| * (* = 0 μM ≤ SC150 < 0.1 μM) | COCC1(n2ccc(C(=O)NCc3nc(-c4cc5c(N[C@H]6CCOC[C@H]6F)cccc5n4CC(F)(F)F)no3)c2)CC1 [Compound 496B, N-{[3-(4-{[(3S,4S)-3-fluorooxan-4-yl]amino}-1-(2,2,2-trifluoroethyl)-1H-indol-2-yl)-1,2,4-oxadiazol-5-yl]methyl}-1-[1-(methoxymethyl)cyclopropyl]-1H-pyrrole-3-carboxamide] |
| * (* = 0 μM ≤ SC150 < 0.1 μM) | CC(C)(C)n1cc(C(=O)NCc2nc(-c3cc4c(N[C@@H]5CCOC[C@@H]5F)cccc4n3CC(F)(F)F)no2)cn1 [Compound 497B, 1-tert-butyl-N-{[3-(4-{[(3R,4R)-3-fluorooxan-4-yl]amino}-1-(2,2,2-trifluoroethyl)-1H-indol-2-yl)-1,2,4-oxadiazol-5-yl]methyl}-1H-pyrazole-4-carboxamide] |
| * (* = 0 μM ≤ SC150 < 0.1 μM) | CC(C)(C)n1cc(C(=O)NCc2nc(-c3cc4c(N[C@H]5CCOC[C@H]5F)cccc4n3CC(F)(F)F)no2)cn1 [Compound 498B, 1-tert-butyl-N-{[3-(4-{[(3S,4S)-3-fluorooxan-4-yl]amino}-1-(2,2,2-trifluoroethyl)-1H-indol-2-yl)-1,2,4-oxadiazol-5-yl]methyl}-1H-pyrazole-4-carboxamide] |
| * (* = 0 μM ≤ SC150 < 0.1 μM) | CN1CC[C@@H](Nc2cccc3c2cc(-c2noc(CNC(=O)c4ccc(C(C)(C)C)nc4)n2)n3CC(F)(F)F)[C@@H](F)C1 [Compound 501B, 6-tert-butyl-N-{[3-(4-{[(3S,4R)-3-fluoro-1-methylpiperidin-4-yl]amino}-1-(2,2,2-trifluoroethyl)-1H-indol-2-yl)-1,2,4-oxadiazol-5-yl]methyl}pyridine-3-carboxamide] |
| * (* = 0 μM ≤ SC150 < 0.1 μM) | CC(C)(C)n1ccc(C(=O)NCc2nc(-c3cc4c(N[C@@H]5CCNC[C@@H]5F)cccc4n3CC(F)(F)F)no2)c1 [Compound 502B, 1-tert-butyl-N-{[3-(4-{[(3S,4R)-3-fluoropiperidin-4-yl]amino}-1-(2,2,2-trifluoroethyl)-1H-indol-2-yl)-1,2,4-oxadiazol-5-yl]methyl}-1H-pyrrole-3-carboxamide] |
| * (* = 0 μM ≤ SC150 < 0.1 μM) | COCC1(c2ccc(C(=O)NCc3nc(-c4cc5c(N[C@@H]6CCNC[C@@H]6F)cccc5n4CC(F)(F)F)no3)s2)CC1 [Compound 503B, N-{[3-(4-{[(3S,4R)-3-fluoropiperidin-4-yl]amino}-1-(2,2,2-trifluoroethyl)-1H-indol-2-yl)-1,2,4-oxadiazol-5-yl]methyl)-5-[1-(methoxymethyl)cyclopropyl]thiophene-2-carboxamide] |
| * (* = 0 μM ≤ SC150 < 0.1 μM) | COCC1(n2ccc(C(=O)NCc3nc(-c4cc5c(N[C@@H]6CCN(C)C[C@@H]6C)cccc5n4CC(F)(F)F)no3)c2)CC1 [Compound 504B, N-{[3-(4-{[(3S,4R)-1,3-dimethylpiperidin-4-yl]amino}-1-(2,2,2-trifluoroethyl)-1H-indol-2-yl)-1,2,4-oxadiazol-5-yl]methyl}-1-[1-(methoxymethyl)cyclopropyl]-1H-pyrrole-3-carboxamide] |

| Structure (SMILES) | Y220C SC150 (μM) |
| --- | --- |
| CN1CC[C@@H](Nc2cccc3c2cc(-c2noc(CNC(=O)c4ccc(C5(CO)CC5)s4)n2)n3CC(F)(F)F)[C@@H](F)C1 [Compound 486B, N-{[3-(4-{[(3S,4R)-3-fluoro-1-methylpiperidin-4-yl]amino}-1-(2,2,2-trifluoroethyl)-1H-indol-2-yl)-1,2,4-oxadiazol-5-yl]methyl}-5-[1-(hydroxymethyl)cyclopropyl]thiophene-2-carboxamide] | * (* = 0 μM ≤ SC150 < 0.1 μM) |
| CN1CC[C@@H](Nc2cccc3c2cc(-c2noc(CNC(=O)c4csc(C5(CO)CC5)c4)n2)n3CC(F)(F)F)[C@@H](F)C1 [Compound 487B, N-{[3-(4-{[(3S,4R)-3-fluoro-1-methylpiperidin-4-yl]amino}-1-(2,2,2-trifluoroethyl)-1H-indol-2-yl)-1,2,4-oxadiazol-5-yl]methyl}-5-[1-(hydroxymethyl)cyclopropyl]thiophene-3-carboxamide] | * (* = 0 μM ≤ SC150 < 0.1 μM) |
